Assays:
PI3k δ = target: T1, PI3k δ (Homo sapiens, UniProt O00329); test: biochemical; format: biochemical; conditions: read-out: PI3k δ Ki
T1 construct: Full length p110 subunits of PI3k α, β and δ; polyHis (N); made in house; host or cells: Sf9 insect cells (baculovirus)
Procedure: Full length p110 subunits of PI3k α, β and δ, N-terminally labeled with polyHis tag, were coexpressed with p85 with Baculo virus expression vectors in sf9 insect cells. P110/p85 heterodimers were purified by sequential Ni-NTA, Q-HP, Superdex-100 chromatography. Purified α, β and δ isozymes were stored at −20° C. in 20 mM Tris, pH 8, 0.2M NaCl, 50% glycerol, 5 mM DTT, 2 mM Na cholate. […] The γ isozyme was purified by sequential Ni-NTA, Superdex-200, Q-HP chromatography. The γ isozyme was stored frozen at −80° C. in NaH2PO4, pH 8, 0.2M NaCl, 1% ethylene glycol, 2 mM β-mercaptoethanol.
Phospatidyl inositol phosphoacceptor, Ptdlns(4,5)P2 P4508, was from Echelon Biosciences. […] Test compounds were dissolved in dimethyl sulfoxide and diluted with three-fold serial dilutions. The compound in DMSO (1 μL) was added per test well, and the inhibition relative to reactions containing no compound, with and without enzyme was determined. After assay incubation at rt, the reaction was stopped and residual ATP determined by addition of an equal volume of a commercial ATP bioluminescence kit (Perkin Elmer EasyLite) according to the manufacturer's instructions, and detected using a AnalystGT luminometer.

[1] = system: mouse model of rheumatoid arthritis; conditions: in vivo; cited from earlier work
[2] = system: model of systemic lupus erythematosis; conditions: in vivo; cited from earlier work
protein kinases = conditions: cited from earlier work
p110δ = p110δ (Homo sapiens, UniProt O00329); conditions: cited from earlier work
Sequence of p110δ (O00329 whole entry): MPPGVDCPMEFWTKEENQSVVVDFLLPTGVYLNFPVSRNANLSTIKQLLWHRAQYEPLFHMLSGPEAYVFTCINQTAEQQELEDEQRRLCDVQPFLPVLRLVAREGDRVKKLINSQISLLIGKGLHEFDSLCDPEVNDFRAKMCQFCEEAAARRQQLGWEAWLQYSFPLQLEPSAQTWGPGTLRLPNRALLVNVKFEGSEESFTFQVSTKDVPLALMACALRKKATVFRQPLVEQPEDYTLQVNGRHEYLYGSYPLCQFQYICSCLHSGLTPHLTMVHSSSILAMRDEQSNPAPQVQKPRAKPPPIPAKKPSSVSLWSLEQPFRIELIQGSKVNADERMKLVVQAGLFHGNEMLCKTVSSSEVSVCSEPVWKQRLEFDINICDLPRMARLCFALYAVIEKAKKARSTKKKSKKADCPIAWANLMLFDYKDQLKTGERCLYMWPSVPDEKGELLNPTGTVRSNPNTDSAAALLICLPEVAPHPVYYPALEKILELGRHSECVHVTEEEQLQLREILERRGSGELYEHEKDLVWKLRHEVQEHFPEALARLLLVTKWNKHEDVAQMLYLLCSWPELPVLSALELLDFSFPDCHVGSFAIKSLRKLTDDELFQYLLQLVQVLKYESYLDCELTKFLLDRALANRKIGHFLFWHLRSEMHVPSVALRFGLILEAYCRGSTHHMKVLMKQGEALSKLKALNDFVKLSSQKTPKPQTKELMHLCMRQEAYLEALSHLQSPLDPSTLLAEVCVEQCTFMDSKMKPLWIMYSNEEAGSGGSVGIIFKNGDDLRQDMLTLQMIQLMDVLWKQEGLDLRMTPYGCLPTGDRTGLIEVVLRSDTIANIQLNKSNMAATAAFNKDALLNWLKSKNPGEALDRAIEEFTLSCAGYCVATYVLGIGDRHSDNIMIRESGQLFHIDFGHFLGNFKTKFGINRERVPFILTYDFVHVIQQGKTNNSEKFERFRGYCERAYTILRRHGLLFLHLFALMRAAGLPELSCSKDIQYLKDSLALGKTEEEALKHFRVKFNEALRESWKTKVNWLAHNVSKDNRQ
Sequence of p110δ (P27986 whole entry partner): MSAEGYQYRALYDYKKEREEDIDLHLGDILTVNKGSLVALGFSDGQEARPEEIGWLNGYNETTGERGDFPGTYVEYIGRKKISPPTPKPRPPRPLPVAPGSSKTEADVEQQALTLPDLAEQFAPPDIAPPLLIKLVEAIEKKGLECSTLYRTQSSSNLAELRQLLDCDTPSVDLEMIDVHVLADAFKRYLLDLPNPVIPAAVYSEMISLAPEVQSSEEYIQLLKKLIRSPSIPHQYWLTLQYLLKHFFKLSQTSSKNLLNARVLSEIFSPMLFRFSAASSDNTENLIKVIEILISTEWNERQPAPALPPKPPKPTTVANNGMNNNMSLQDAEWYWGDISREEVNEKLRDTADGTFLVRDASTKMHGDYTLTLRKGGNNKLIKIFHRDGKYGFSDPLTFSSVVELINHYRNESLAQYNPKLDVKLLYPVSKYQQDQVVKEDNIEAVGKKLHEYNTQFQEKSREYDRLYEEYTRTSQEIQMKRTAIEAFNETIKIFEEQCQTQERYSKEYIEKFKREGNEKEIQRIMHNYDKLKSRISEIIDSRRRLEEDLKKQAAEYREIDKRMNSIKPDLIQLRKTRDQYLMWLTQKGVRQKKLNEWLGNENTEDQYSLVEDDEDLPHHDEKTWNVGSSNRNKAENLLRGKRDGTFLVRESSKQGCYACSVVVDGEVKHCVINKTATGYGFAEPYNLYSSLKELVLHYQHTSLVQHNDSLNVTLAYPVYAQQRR

murine model of asthma = conditions: ovalbumin-induced airway inflammation; cited from earlier work
P110β = P110β (Homo sapiens, UniProt P42338); conditions: cited from earlier work
Sequence of P110β (P42338 whole entry, canonical isoform): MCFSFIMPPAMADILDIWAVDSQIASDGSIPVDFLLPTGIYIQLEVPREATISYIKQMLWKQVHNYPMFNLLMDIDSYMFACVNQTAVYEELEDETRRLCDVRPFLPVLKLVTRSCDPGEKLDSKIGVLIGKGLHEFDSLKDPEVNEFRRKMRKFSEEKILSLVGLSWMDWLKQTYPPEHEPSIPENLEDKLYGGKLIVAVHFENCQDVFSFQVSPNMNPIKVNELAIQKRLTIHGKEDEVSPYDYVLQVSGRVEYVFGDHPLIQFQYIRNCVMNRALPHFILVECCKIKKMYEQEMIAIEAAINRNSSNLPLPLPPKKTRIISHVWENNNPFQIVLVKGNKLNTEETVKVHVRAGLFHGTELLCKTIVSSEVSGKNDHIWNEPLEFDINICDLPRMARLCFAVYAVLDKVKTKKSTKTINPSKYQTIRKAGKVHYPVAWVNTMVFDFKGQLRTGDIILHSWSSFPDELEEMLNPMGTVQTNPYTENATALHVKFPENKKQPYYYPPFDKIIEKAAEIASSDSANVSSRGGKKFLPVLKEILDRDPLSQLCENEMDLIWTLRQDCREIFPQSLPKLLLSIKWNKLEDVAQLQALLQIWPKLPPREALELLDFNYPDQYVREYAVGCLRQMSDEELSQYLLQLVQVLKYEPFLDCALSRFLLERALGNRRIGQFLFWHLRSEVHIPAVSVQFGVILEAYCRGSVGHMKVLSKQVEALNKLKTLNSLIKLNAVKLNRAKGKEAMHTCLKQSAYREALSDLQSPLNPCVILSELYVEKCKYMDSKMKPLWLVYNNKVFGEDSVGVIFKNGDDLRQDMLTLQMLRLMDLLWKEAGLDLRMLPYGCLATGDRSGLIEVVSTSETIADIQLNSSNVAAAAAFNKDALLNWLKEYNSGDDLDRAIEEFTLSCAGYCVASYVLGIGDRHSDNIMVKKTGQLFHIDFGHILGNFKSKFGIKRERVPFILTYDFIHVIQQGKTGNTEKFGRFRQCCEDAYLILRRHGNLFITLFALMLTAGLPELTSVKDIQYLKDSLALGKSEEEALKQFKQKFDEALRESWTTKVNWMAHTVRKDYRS
Sequence of P110β (P27986 whole entry partner, canonical isoform): as the sequence (P27986 whole entry partner) above

[3] = system: Class I PI3 kinase isoforms; conditions: cited from earlier work

T1 sequence (O00329 whole entry): as the sequence (O00329 whole entry) above
T1 sequence (P27986 whole entry partner): as the sequence (P27986 whole entry partner) above

| SMILES | Ki (PI3k δ) [nM] | also measured |
| --- | --- | --- |
| C[C@H](Nc1ncnc(N)c1C#N)c1nc2cccc(Br)c2n1-c1cncc(F)c1 [4-amino-6-(((1S)-1-(7-bromo-1-(5-fluoro-3-pyridinyl)-1H-benzimidazol-2-yl)ethyl)amino)-5-pyrimidinecarbonitrile] | 48.1 | – |
| C[C@H](Nc1ncnc(N)c1C#N)c1nc2cccc(F)c2[nH]1 [4-amino-6-(((1S)-1-(7-fluoro-1H-benzimidazol-2-yl)ethyl)amino)-5-pyrimidinecarbonitrile] | 173 | – |
| N#Cc1c(N)ncnc1NCc1nc2c(Cl)cccn2c1-c1ccccc1 [4-amino-6-(((8-chloro-3-phenylimidazo[1,2-a]pyridin-2-yl)methyl)amino)-5-pyrimidinecarbonitrile] | 230 | – |
| O=C1NC(=O)/C(=C\c2ccc3nccnc3c2)S1 [AS 605240] | – | efficacy in a mouse model of rheumatoid arthritis [1]: efficacious; onset of disease in a model of systemic lupus erythematosis [2]: delay onset of disease |
| Cc1ccccc1-n1c(Cn2cnc3c(N)ncnc32)nc2cccc(C)c2c1=O [IC87114] | – | activity against any protein kinases tested (protein kinases): no activity; inhibition of p110δ (p110δ): high nanomolar range (triple digit); inflammation and disease in a murine model of asthma (murine model of asthma): significantly ameliorate inflammation and disease |
| C[C@@H](Nc1ncnc(N)c1C#N)c1nc2ccc(F)cc2n1-c1cncc(NS(C)(=O)=O)c1 [N-(5-(2-((1R)-1-((6-amino-5-cyano-4-pyrimidinyl)amino)ethyl)-6-fluoro-1H-benzimidazol-1-yl)-3-pyridinyl)methanesulfonamide] | 600 | – |
| C[C@H](Nc1ncnc(N)c1C#N)c1nc2ccc(F)cc2n1-c1cncc(NS(C)(=O)=O)c1 [N-(5-(2-((1S)-1-((6-amino-5-cyano-4-pyrimidinyl)amino)ethyl)-6-fluoro-1H-benzimidazol-1-yl)-3-pyridinyl)methanesulfonamide] | 11.9 | – |
| CC[C@H](Nc1ncnc2[nH]cnc12)c1nc2cccc(C(F)(F)F)c2n1CC1CC1 [N-((1S)-1-(1-(cyclopropylmethyl)-7-(trifluoromethyl)-1H-benzimidazol-2-yl)propyl)-9H-purin-6-amine] | 100 | – |
| C[C@H](Nc1ncnc2[nH]cnc12)c1nc2ccc(Cl)cc2n1-c1cc(F)cc(F)c1 [N-((1S)-1-(6-chloro-1-(3,5-difluorophenyl)-1H-benzimidazol-2-yl)ethyl)-9H-purin-6-amine] | 8.4 | – |
| C[C@H](Nc1ncnc2[nH]cnc12)c1nc2ccc(F)cc2n1-c1cccc(F)c1 [N-((1S)-1-(6-fluoro-1-(3-fluorophenyl)-1H-benzimidazol-2-yl)ethyl)-9H-purin-6-amine] | 2.7 | – |
| C[C@H](Nc1ncnc2[nH]cnc12)c1nc2ccc(F)cc2n1-c1cncc(F)c1 [N-((1S)-1-(6-fluoro-1-(5-fluoro-3-pyridinyl)-1H-benzimidazol-2-yl)ethyl)-9H-purin-6-amine] | 3.77 | – |
| C[C@H](Nc1ncnc2[nH]cnc12)c1nc2cccc(F)c2[nH]1 [N-((1S)-1-(7-fluoro-1H-benzimidazol-2-yl)ethyl)-9H-purin-6-amine] | 650 | – |
| Cc1cc(C(C)Nc2ccccc2)c2nc(N3CCOCC3)cc(=O)n2c1 (stereo not drawn) [TGX-221] | – | potency on beta (P110β): 7 nM; selectivity over delta ([3]; beta over delta): 14 fold; selectivity over gamma and alpha ([3]; beta over gamma and alpha): more than 500 fold |
| COC(=O)c1cccc2nc([C@H](C)Nc3ncnc(N)c3C#N)c(-c3cccnc3)n12 [methyl 2-((1S)-1-((6-amino-5-cyano-4-pyrimidinyl)amino)ethyl)-3-(3-pyridinyl)imidazo[1,2-a]pyridine-5-carboxylate] | 147 | – |
| COC(=O)c1cccc2nc([C@H](C)Nc3ncnc(N)c3C#N)c(-c3cncc(F)c3)n12 [methyl 2-((1S)-1-((6-amino-5-cyano-4-pyrimidinyl)amino)ethyl)-3-(5-fluoro-3-pyridinyl)imidazo[1,2-a]pyridine-5-carboxylate] | 314 | – |
| COC(=O)c1cccc2nc([C@H](C)Nc3ncnc(N)c3C#N)c(-c3ccccc3)n12 [methyl 2-((1S)-1-((6-amino-5-cyano-4-pyrimidinyl)amino)ethyl)-3-phenylimidazo[1,2-a]pyridine-5-carboxylate] | 39 | – |
